Measured values as given in ChEMBL document CHEMBL1201862, “PubChem BioAssay data set” (2004).
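Compound exposure: 48 hours, 5 concentrations, 96-well plates. Here, GI50 denotes the concentration required for 50% inhibition of growth.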 Activity calls are given as the source filed them. No stated cut-off is given here; in the data, active = GI50 up to about 1.1 µM and inactive = higher.

Tests used:
Test in all cases: DTP human tumour cell line panel, 48 h
SW-620 = test system: SW-620
CAKI-1 = test system: CAKI-1
MOLT-4 = test system: MOLT-4
KM12 = test system: KM12
U-251 = test system: U-251
A498 = test system: A498
NCI-H460 = test system: NCI-H460
UACC-257 = test system: UACC-257
NCI-H23 = test system: NCI-H23
EKVX = test system: EKVX
ACHN = test system: ACHN
SK-MEL-2 = test system: SK-MEL-2
COLO 205 = test system: COLO 205
MDA-MB-231 = test system: MDA-MB-231
CCRF-CEM = test system: CCRF-CEM
786-0 = test system: 786-0
OVCAR-4 = test system: OVCAR-4
A549 = test system: A549
SNB-75 = test system: SNB-75

Measured: GI50

COc1cc(C(=O)N(C(=S)OCc2ccccn2)c2ccccc2)cc(OC)c1OC
inactive: SW-620 59.7 µM | CAKI-1 44.7 µM | MOLT-4 25.6 µM | KM12 > 100 µM | U-251 > 100 µM | A498 53.5 µM | NCI-H460 35.6 µM | UACC-257 > 100 µM | NCI-H23 86.1 µM | EKVX 12.9 µM | ACHN 42.3 µM | SK-MEL-2 > 100 µM | COLO 205 53.5 µM | MDA-MB-231 78.5 µM | CCRF-CEM 17.8 µM | 786-0 77.8 µM

CCN(C(=S)N[C@H](C(=O)N[C@@H](C)C(=O)OC)C(C)C)c1ccccc1
inactive: SW-620 59.7 µM | CAKI-1 > 100 µM | MOLT-4 25.4 µM | KM12 > 100 µM | U-251 > 100 µM | NCI-H460 33.6 µM | UACC-257 44.7 µM | NCI-H23 > 100 µM | EKVX > 100 µM | ACHN 64.4 µM | SK-MEL-2 > 100 µM | COLO 205 59.6 µM | MDA-MB-231 > 100 µM | OVCAR-4 > 100 µM | CCRF-CEM 27.8 µM | 786-0 59.7 µM | A549 > 100 µM

OCc1cccc(Nc2nc(O)c3[nH]cnc3n2)c1
inactive: SW-620 > 100 µM | SNB-75 > 100 µM | CAKI-1 > 100 µM | MOLT-4 > 100 µM | KM12 > 100 µM | U-251 > 100 µM | UACC-257 > 100 µM | NCI-H23 > 100 µM | EKVX > 100 µM | ACHN > 100 µM | SK-MEL-2 > 100 µM | COLO 205 > 100 µM | MDA-MB-231 > 100 µM | OVCAR-4 > 100 µM | CCRF-CEM > 100 µM | 786-0 > 100 µM | A549 > 100 µM

O=C(CCNC(=O)OCc1ccccc1)OCCCNC(=O)OCc1ccccc1
inactive: SW-620 > 100 µM | SNB-75 50.8 µM | MOLT-4 > 100 µM | KM12 > 100 µM | U-251 > 100 µM | NCI-H460 > 100 µM | UACC-257 > 100 µM | NCI-H23 > 100 µM | ACHN > 100 µM | COLO 205 > 100 µM | MDA-MB-231 > 100 µM | OVCAR-4 > 100 µM | CCRF-CEM > 100 µM | 786-0 > 100 µM | A549 > 100 µM

CC(=O)O[C@H]1C(=O)[C@@]2(C)[C@H]([C@H](OC(=O)c3ccccc3)[C@@]3(O)C[C@H](O)C(C)=C1C3(C)C)[C@]1(OC(C)=O)CO[C@@H]1C[C@@H]2O
inactive: SW-620 14.6 µM | SNB-75 11.2 µM | CAKI-1 > 100 µM | MOLT-4 73.3 µM | KM12 15.2 µM | U-251 45.9 µM | NCI-H460 24.2 µM | UACC-257 83.6 µM | NCI-H23 39.1 µM | EKVX > 100 µM | ACHN > 100 µM | SK-MEL-2 46.9 µM | COLO 205 26.5 µM | MDA-MB-231 45.1 µM | OVCAR-4 > 100 µM | CCRF-CEM 46.2 µM | 786-0 51.5 µM | A549 73.3 µM

Cc1cc(=O)oc2c(C)c3oc(CBr)cc3cc12
inactive: SW-620 13.5 µM | SNB-75 22.6 µM | CAKI-1 17.5 µM | MOLT-4 14.3 µM | KM12 19.1 µM | U-251 19.8 µM | NCI-H460 17.2 µM | UACC-257 22.8 µM | NCI-H23 18.3 µM | EKVX 26.4 µM | ACHN 15.8 µM | SK-MEL-2 24.5 µM | COLO 205 18.4 µM | MDA-MB-231 29.4 µM | OVCAR-4 25.8 µM | CCRF-CEM 14.4 µM | 786-0 16.3 µM | A549 17.3 µM

N#Cc1c(N2CCOCC2)ncn(-c2ccc(Cl)cc2)c1=O
inactive: SW-620 > 100 µM | SNB-75 > 100 µM | CAKI-1 > 100 µM | MOLT-4 > 100 µM | KM12 > 100 µM | U-251 > 100 µM | A498 > 100 µM | NCI-H460 > 100 µM | UACC-257 > 100 µM | NCI-H23 > 100 µM | EKVX > 100 µM | ACHN > 100 µM | SK-MEL-2 > 100 µM | COLO 205 > 100 µM | CCRF-CEM > 100 µM | 786-0 > 100 µM | A549 > 100 µM

CO[C@H]1SC[C@H](OC(C)=O)[C@H](OC(C)=O)[C@H]1OC(C)=O
inactive: SW-620 > 100 µM | CAKI-1 > 100 µM | MOLT-4 > 100 µM | KM12 > 100 µM | U-251 > 100 µM | NCI-H460 > 100 µM | UACC-257 > 100 µM | NCI-H23 > 100 µM | EKVX > 100 µM | ACHN > 100 µM | SK-MEL-2 > 100 µM | COLO 205 > 100 µM | MDA-MB-231 > 100 µM | OVCAR-4 > 100 µM | CCRF-CEM > 100 µM | 786-0 > 100 µM | A549 > 100 µM
